# Values quoted from earlier work, collected in US12233205B2, “Thermal modulation of an inhalable medicament” (priority 2014, dated 2025).
# Conditions: administered IV
row,Molecule,bioavailability
1,Nc1nc(NC2CC2)c2ncn([C@H]3C=C[C@@H](CO)C3)c2n1 [Abacavir],61-89%
2,Cc1nnc(SCC2=C(C(=O)O)N3C(=O)[C@@H](NC(=O)Cn4cnnn4)[C@H]3SC2)s1 [Cefazolin],around 78%
3,Gentamicin,around 100%
4,C[C@@H](O)[C@H]1C(=O)N2C(C(=O)O)=C(S[C@@H]3CN[C@H](C(=O)Nc4cccc(C(=O)O)c4)C3)[C@H](C)[C@H]12 [Ertapenem],around 90%

# Same assay, conditions: administered PO
row,Molecule,bioavailability
1,CC(=O)Oc1ccccc1C(=O)O [Aspirin],61-80%
2,CCOC(=O)C1=C[C@@H](OC(CC)CC)[C@H](NC(C)=O)[C@@H](N)C1 [Oseltamivir],around 75%
3,Nc1nc(NC2CC2)c2ncn([C@H]3C=C[C@@H](CO)C3)c2n1 [Abacavir],around 83%
4,CN[C@H](CC(C)C)C(=O)N[C@H]1C(=O)N[C@@H](CC(N)=O)C(=O)N[C@H]2C(=O)N[C@H]3C(=O)N[C@H](C(=O)N[C@H](C(=O)O)c4cc(O)cc(O)c4-c4cc3ccc4O)[C@H](O)c3ccc(c(Cl)c3)Oc3cc2cc(c3O[C@@H]2O[C@H](CO)[C@@H](O)[C@H](O)[C@H]2O[C@H]2C[C@](C)(N)[C@H](O)[C@H](C)O2)Oc2ccc(cc2Cl)[C@H]1O [Vancomycin],negligible
5,CN(C)C(=O)Oc1cccc([N+](C)(C)C)c1 [Neostigmine],1-2%
6,NNC(=O)c1ccncc1 [Isoniazid],around 90%
7,"Penicillin G, V",30-80%
8,CCOc1ccc2ccccc2c1C(=O)N[C@@H]1C(=O)N2[C@@H]1SC(C)(C)[C@@H]2C(=O)O [Nafcillin],around 50%
9,CN(C)c1ccc(O)c2c1C[C@H]1C[C@H]3[C@H](N(C)C)C(O)=C(C(N)=O)C(=O)[C@@]3(O)C(O)=C1C2=O [Minocycline],around 90%
10,CC[C@H]1OC(=O)[C@H](C)[C@@H](O[C@H]2C[C@@](C)(OC)[C@@H](O)[C@H](C)O2)[C@H](C)[C@@H](O[C@@H]2O[C@H](C)C[C@H](N(C)C)[C@H]2O)[C@](C)(O)C[C@@H](C)CN(C)[C@H](C)[C@@H](O)[C@]1(C)O [Azithromycin],around 38%
11,NC12CC3CC(CC(C3)C1)C2 [Amantadine],around 86%
12,Gentamicin,negligible
13,COc1cccc(C2(O)CCCCC2CN(C)C)c1 (stereo not shown) [Tramadol],75-95%
14,CC(C)Cc1ccc(C(C)C(=O)O)cc1 (stereo not shown) [Ibuprofen],58-98%
15,CO[C@H]1/C=C/O[C@@]2(C)Oc3c(C)c(O)c4c(O)c(c(/C=N/N5CCN(C)CC5)c(O)c4c3C2=O)NC(=O)/C(C)=C\C=C\[C@H](C)[C@H](O)[C@@H](C)[C@@H](O)[C@@H](C)[C@H](OC(C)=O)[C@@H]1C [Rifampin],90-95%
16,C[C@H]1COc2c(N3CCN(C)CC3)c(F)cc3c(=O)c(C(=O)O)cn1c23 [Levofloxacin],around 99%
17,[H]/N=C(\N/C(=N/[H])NCCCCCCNC(=N)NC(=N)Nc1ccc(Cl)cc1)Nc1ccc(Cl)cc1 [Chlorhexidine],around 4%
18,Nc1nc(O)c2ncn(COC(CO)CO)c2n1 [Ganciclovir],around 5%
19,CC[C@H]1OC(=O)[C@H](C)[C@@H](O[C@H]2C[C@@](C)(OC)[C@@H](O)[C@H](C)O2)[C@H](C)[C@@H](O[C@@H]2O[C@H](C)C[C@H](N(C)C)[C@H]2O)[C@](C)(OC)C[C@@H](C)C(=O)[C@H](C)[C@@H](O)[C@]1(C)O [Clarithromycin],around 55%
20,Nc1nc2c(ncn2COCCO)c(=O)[nH]1 [Acyclovir],10-20%
21,Cc1ccnc2c1NC(=O)c1cccnc1N2C1CC1 [Nevirapine],80-94%
22,NC(=O)c1ncn([C@@H]2O[C@H](CO)[C@@H](O)[C@H]2O)n1 [Ribavirin],around 64%
23,Cc1nnc(C(=O)NC(C)(C)c2nc(C(=O)NCc3ccc(F)cc3)c(O)c(=O)n2C)o1 [Raltegravir],20-43%
24,CNC[C@H](O)c1cccc(O)c1 [Phenylephrine],around 38%

# Same assay, conditions: administered PR
row,Molecule,bioavailability
1,CO[C@@]1(NC(=O)Cc2cccs2)C(=O)N2C(C(=O)O)=C(COC(N)=O)CS[C@@H]21 [Cefoxitin],7-17%

# Same assay, conditions: administered as a nasal spray
row,Molecule,bioavailability
1,CN1CCCC(n2nc(Cc3ccc(Cl)cc3)c3ccccc3c2=O)CC1 (stereo not shown) [Azelastine],around 40%
2,CNS(=O)(=O)Cc1ccc2[nH]cc(CCN(C)C)c2c1 [Sumatriptan],around 25%

# Same assay, conditions: administered as an inhalable
row,Molecule,bioavailability
1,NC[C@H]1O[C@H](O[C@H]2[C@H](O)[C@@H](O[C@H]3O[C@H](CO)[C@@H](O)[C@H](N)[C@H]3O)[C@H](N)C[C@@H]2N)[C@H](N)C[C@@H]1O [Tobramycin],1-16.6%

# Same assay, conditions: in vivo, im
row,Molecule,bioavailability
1,CCOC(=O)C1(c2ccccc2)CCN(C)CC1 [Meperidine],around 57%

# Same assay, conditions: in vivo, inhaled or intranasal
row,Molecule,bioavailability
1,C[C@@H]1C[C@H]2[C@@H]3CCC4=CC(=O)C=C[C@]4(C)[C@@]3(Cl)[C@@H](O)C[C@]2(C)[C@@]1(O)C(=O)CCl [Mometasone],around 1%

# Same assay, conditions: in vivo, po
row,Molecule,bioavailability
1,CNCC[C@H](Oc1cccc2ccccc12)c1cccs1 [Duloxetine],30-80%
2,Cc1ncc2n1-c1ccc(Cl)cc1C(c1ccccc1F)=NC2 [Midazolam],around 36%

# Same assay, conditions: route not stated
row,Molecule,bioavailability
1,CC(=O)N[C@H]1[C@H]([C@H](O)[C@H](O)CO)OC(C(=O)O)=C[C@@H]1N=C(N)N [Zanamivir],4-17%
